Source: US20080274096A1, “Fusion Proteins Having a Modulated Half-Life in Plasma” (ASTRAZENECA AB, priority 2005, published 2008)

Columns and labels:
Assay type in all cases: biochemical
[1] = molecular target: T1, Human recombinant Neprilysin (Homo sapiens, UniProt P08473); test: Inhibition of Neprilysin degradation of amyloid β1-40 peptide in buffer; parameters: Degradation of Amyloid β Peptide by Soluble Neprilysin; purchased R&D Systems; settings: 10 microM Phosphoramidone; Neprilysin 1.8 μg/ml; 3 hours, 37° C.
T1 sequence (P08473 52-750 limits assumed): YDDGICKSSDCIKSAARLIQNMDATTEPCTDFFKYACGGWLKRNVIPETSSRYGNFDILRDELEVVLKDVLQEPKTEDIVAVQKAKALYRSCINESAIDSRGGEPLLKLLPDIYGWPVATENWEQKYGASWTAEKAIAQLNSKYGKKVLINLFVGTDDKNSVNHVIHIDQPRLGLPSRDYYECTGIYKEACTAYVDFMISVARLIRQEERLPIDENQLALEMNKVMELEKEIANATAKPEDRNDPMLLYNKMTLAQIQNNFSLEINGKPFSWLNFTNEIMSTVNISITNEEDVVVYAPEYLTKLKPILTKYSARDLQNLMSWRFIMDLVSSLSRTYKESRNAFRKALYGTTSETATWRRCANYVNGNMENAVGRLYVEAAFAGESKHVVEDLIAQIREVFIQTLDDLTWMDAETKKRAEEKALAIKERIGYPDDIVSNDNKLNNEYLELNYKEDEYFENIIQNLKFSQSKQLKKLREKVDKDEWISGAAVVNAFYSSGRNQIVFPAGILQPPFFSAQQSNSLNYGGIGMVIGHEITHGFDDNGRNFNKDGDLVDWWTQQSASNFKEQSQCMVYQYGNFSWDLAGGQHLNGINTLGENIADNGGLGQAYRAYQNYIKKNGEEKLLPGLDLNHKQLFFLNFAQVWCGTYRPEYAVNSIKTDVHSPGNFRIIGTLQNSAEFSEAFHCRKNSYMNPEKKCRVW
Description: The assay is measuring the remaining amyloid β1-40 peptide (Bachem) concentration following its incubation in the presence of Neprilysin (R&D Systems) with or without Neprilysin inhibitor. 100 μl of reaction mixture containing of amyloid β1-40 peptide (final concentration 1 or 10 μM) and/or Neprilysin (1.8 μg/ml), and/or Phosphoramidone (10 μM) was incubated in a round bottom 96-well polypropylene plate at 37° C. for 3 hours. Following incubation, 50 μl of antibodies solution containing anti-Aβ40 (final concentration 0.125 μg/ml; Biosource) and Biotinylated 6E10 (final concentration 0.125 μg/ml; Signet) antibodies was added to each well. Plate was incubated at RT for 3 h. Following incubation, 50 μl of detection mixture of Dynabeads M280 (Dynal Biotech ASA) and secondary antibody Ru-GαR (final concentration 0.132 μg/ml) was added to all wells. Plate was incubated on a shaker at RT for 1 h and results were recorded on IGEN/Bio Veris M8 analyser. Amyloid β1-40 peptide degradation by Neprilysin was calculated as a percentage of Amyloid β1-40 peptide left after incubation in the presence of Neprilysin compared to the amyloid β1-40 peptide concentration in the absence of Neprilysin.

[2] = molecular target: T1, Human recombinant Neprilysin; test: Inhibition of added Neprilysin degradation of Aβ40 in guinea pig plasma; parameters: purchased R&D Systems; host or cells: enzyme added to pooled heparinized guinea pig plasma; settings: 10 microM Phosphoramidon
Description: Blood was withdrawn from anaesthetized guinea pigs by heart puncture. The blood were collected into prechilled heparin-plasma tubes and centrifuged for 10 min at 4° C. at 3000×g within 20 minutes of sampling. Plasma samples were transferred to pre-chilled polypropylene tubes and immediately frozen on dry ice and stored at −70° C. prior to use. The experiments were performed on a pool of plasma from 5-6 guinea pigs.
Human recombinant Neprilysin in a buffer containing 25 mM Tris and 100 mM NaCl pH 8 (R&D Systems) or buffer only (i.e. vehicle) was incubated with guinea pig plasma at 37° C. for 0-360 minutes in presence or absents of 10 microM phosphoramidon (Biomol). A final concentration of 4.7 mM EDTA was added into the tubes before the amount of Aβ1-40 or Aβ1-42 was analyzed by using commercial ELISA kits obtained from Biosource (Aβ1-40) or Innogenetics (Aβ1-42).

amyloid β peptide = test: Two-compartment membrane experiment, degradation of amyloid β peptide; settings: degradation in one compartment connected through a membrane
Description: An experiment is performed to investigate the possibility to remove amyloid β peptide from one compartment by degradation in another compartment connected through a membrane. A similar experiment was conducted using an antibody as an amyloid β peptide agent. The experiment is described by DeMattos et al., (PNAS, 2001). By degrading the amyloid β peptide with neprilysin and/or NEP-Fc in one compartment the concentration of amyloid β peptide in the other compartment is decreased. Importantly, neprilysin or NEP-Fc cannot cross the membrane due to its high molecular weight (161.000 Da and 211.000 Da, respectively).

Compound | Neprilysin activity (Aβ1-40 degradation) in the presence of inhibitor [1] | Degradation of Aβ40 by added Neprilysin in the presence of inhibitor [2] | Concentration of amyloid β peptide in the other compartment (amyloid β peptide)
CC(C)C[C@H](NP(=O)(O)O[C@@H]1O[C@@H](C)[C@H](O)[C@@H](O)[C@H]1O)C(=O)N[C@@H](Cc1c[nH]c2ccccc12)C(=O)O [Phosphoramidon] | completely abolished | inhibited | 
NEP-Fc: extracellular domain of Neprilysin fused to the IgG4 Fc domain including hinge region, SEQ ID 8 |  |  | decreased
